Assay: Human HepG2 cell viability assay in 384 well format
Type: toxicity, cell-based
Set-up: dose 125 nL, time 70.5 hour; concentration not given beside the values
Conditions: HepG2 cells, read-out: Inhibition

Row | SMILES | cytotoxicity at 70.5 h [%]
1 | CC(C)Cc1cc(C(=O)NCC2CCCN(c3ccccn3)C2)on1 (centres undefined) | 9.21
2 | CSCC[C@@H](CO)n1ccnc1-c1ccc(C)o1 | 0.0887
3 | O=C1CCC(C(=O)N2CCOC(Cc3ccc(F)cc3)C2)=NN1 (centres undefined) | -11.8
4 | Cc1nn(C)c2nc(N3CCCCC3c3cccnc3)sc12 (centres undefined) | -4.09
5 | CN(CCO)Cc1nnc(C2CCN(C[C@H]3[C@@H]4CNC[C@@H]43)CC2)n1C | 9.78
6 | CCOC(=O)CCCNc1nc(C(C)(C)C)nc2c1cnn2C | -3.02
7 | COc1ccc(N2CCN(Cc3nc(CSC)no3)CC2=O)cc1 | 4.47
8 | CCn1ncnc1CN1CCC(CNC(=O)c2cccnc2O)C1 (centres undefined) | -4.94
9 | Cc1cc(N(C)Cc2c(C)noc2C)n2nc(C)c(C)c2n1 | 3.35
10 | Cc1ccc(N2CCC(c3[nH]ncc3Cc3ccccc3)CC2)nn1 | -10
11 | O=C(C(c1ccc(F)cc1)N1CCCCC1)N1CCn2cncc2C1 (centres undefined) | -1.97
12 | CCc1cc(NCCN2CCNC2=O)n2nc(C)c(C)c2n1 | -11.4
13 | Cc1cc2n(n1)CCN(c1nc(N(C)C)nc3c1CCNC3)C2 | 14.4
14 | CCCc1cc(N2CCC(N[C@H]3CC[C@H](O)CC3)CC2)nc(C)n1 | -4.54
15 | CCN(CC)C(=O)[C@@H]1C[C@H](NC(=O)c2ccn(C(C)(C)C)c2)CN1C | -1.68
16 | OCC1CCCCN1CCn1ccnc1-c1nc2ccccc2[nH]1 (centres undefined) | -2.11
17 | CCc1ccccc1OCCN1CCC(NS(C)(=O)=O)CC1 | 3.87
18 | CSCCc1nc(-c2ccc3c(c2)OCO3)n(C)n1 | -4.21
19 | Cc1ccc2[nH]c(CNC(=O)C3CC4(CCNCC4)CN3C)nc2c1C (centres undefined) | 50.4
20 | OC[C@@H]1CCCN1Cc1cn(C2CCN(C3CCCC3)CC2)nn1 | -4.14
21 | Cn1cccc1-c1cc(C(=O)N2CCCCC2c2ccc(F)cc2)[nH]n1 (centres undefined) | -3.93
22 | CC(=O)N[C@@H]1CN(C(=O)c2ccoc2)C[C@H]1c1ccc(C)cc1 | -13.3

Row | SMILES | cytotoxicity at 70.5 h [%]
23 | CS(=O)(=O)NC1CCN(CCOCc2ccccc2)CC1 | -6.45
24 | Cc1ccc(-c2ncc(C(=O)N3CCN4CCCCC4C3)c(O)n2)cc1 (centres undefined) | -4.08
25 | O=C(NCc1nc(C2CCCCC2)no1)C1CC(=O)N(C2CC2)C1 (centres undefined) | 5.86
26 | Cc1ccc(NC2(C(=O)NC(C)c3ncn[nH]3)CCCC2)cc1 (centres undefined) | 6.6
27 | Cc1ccccc1CC(=O)N1C[C@H]2CC[C@@H]1CN(Cc1cccnc1)C2 | -4.12
28 | CCc1ncc(CN2CCC(CCc3ccccc3)CC2)cn1 | 20.8
29 | CCOc1ccc(CN(CCOC)C(=O)c2ccncc2Cl)cc1 | -3.6
30 | Cc1nc(N2CCCC2C(=O)NCc2ccsc2)nc2ccccc12 (centres undefined) | -6.09
31 | Cn1c(CN2CC[C@](C)(O)C(C)(C)C2)cc2ccccc21 | -5.32
32 | O=C(c1c[nH]cn1)N1CCC(n2cc(-c3ccsc3)nn2)CC1 | 18
33 | CCCc1nc(CN(CC)Cc2ccc(S(C)(=O)=O)cc2)no1 | 10.1
34 | Cn1c(-c2ccccc2Cl)nc2cc(C(=O)NCCS(C)(=O)=O)cnc21 | -7.15
35 | CN(CCC(O)c1ccccc1)c1cc(C2CC2)ncn1 (centres undefined) | -6.59
36 | CO[C@H]1CN(C(C)C)C[C@@H]1NC(=O)Nc1ccc(C(F)(F)F)cc1 | -5.18
37 | CCNC(=O)C1CCN(Cc2ccc(C(=O)Nc3cnns3)cc2)C1 (centres undefined) | 1.67
38 | Cc1ccccc1C(CNc1ncnc2c1CCNC2)N(C)C (centres undefined) | -7.27
39 | Cc1ccnc(N2CCN(C3CCS(=O)(=O)C3)CC2)n1 (centres undefined) | -13.6
40 | COCCCN(Cc1cnc(C2CCCCC2)nc1)C1CCN(C)CC1 | -16.3
41 | CCCN1C[C@H]2CC[C@@H]1CN(C(=O)Cc1c(C)nc(CC)[nH]c1=O)C2 | -8.7
42 | CN(C)C1CCN(C(=O)c2cccc(S(=O)(=O)NCC3(C)COC3)c2)C1 (centres undefined) | -9.11
43 | Cc1cc(C(=O)N(C)Cc2ccoc2)c(NC(=O)C(C)(C)C)s1 | -3.77
44 | CCc1nnc(CNC(=O)CCC2CCCN(C)C2)s1 (centres undefined) | -0.522
